Data from paper PMC11933534, “Favipiravir induces HuNoV viral mutagenesis and infectivity loss with clinical improvement in immunocompromised patients” (Clinical Immunology (Orlando, Fla.), 2024).

Tests used:
[1] = set-up: method as in PMID 30485769; conditions: P2; favipiravir 1200 mg 12-hourly; caused treatment interruptions; cited from earlier work
HuNoV [2] = system: HuNoV; set-up: method as in PMID 30485769; conditions: P2; favipiravir 1200 mg 12-hourly, three courses; cited from earlier work
HuNoV [3] = test: Infectivity of P1 stool-sample HuNoV in zebrafish larvae (fold increase, ID50); type: in vivo
Description: Human stool samples, positive for HuNoV, were obtained from the Great Ormond Street Hospital for Children (United Kingdom) and the University Hospital of Leuven (Belgium). An aliquot of 100 mg of each stool sample was re-suspended in 1 mL of sterile PBS, thoroughly vortexed, and centrifuged (5 min, 1000 g), supernatant was harvested and stored at −80 °C. This virus suspension was used for RNA extractions, quantification by RT-qPCR and injections in the zebrafish larvae. HuNoV RNA was extracted from 100 μL of PBS suspension using the Direct-zol RNA kit (Zymo Research, Irvine, CA, USA), according to the manufacturer's protocol. The original concentrations of the stool samples were as followed: SS A: 5.52*10^9 copies/g stool, SS B: 1.34*10^11 copies/g stool, SS C: 2.07*10^11 copies/g stool, SS D: 3.07*10^10 copies/g stool, SS E: 1.23*10^12 copies/g stool, SS F: 3.12*10^11 copies/g stool and GII.4 Sydney[P16] (in house collection KU Leuven): 1.46*10^10 copies/g stool.
Zebrafish larvae were anesthetized and positioned as described previously, in short: zebrafish larvae of 3 days post fertilization were anesthetized and transferred to an agarose mold to position them on their dorsal side with the yolk facing upward. In every experiment, the injection needle was calibrated to ensure the precision of the injection volume. Microinjection was performed using an M3301R Manual Micromanipulator (WPI, Friedberg, Germany) and a FemtoJet 4i pressure microinjector (Eppendorf, Hamburg, Germany). Compound-treated zebrafish larvae received a 1 nL (1.5 nL in case of the combination treatment) injection of compound in the pericardial cavity, while negative control zebrafish were injected with an equal volume of DMSO. Subsequently, the zebrafish larvae received an injection of 3 nL virus in the yolk. After both injections, zebrafish larvae were transferred to 6-well plates with Danieau's solution and further maintained in an incubator with a 14/10 h light/dark cycle at 32 °C.
Zebrafish larvae were homogenized (Precellys 24, Bertin Technologies, Montigny-le-Bretonneux, France), the homogenates were cleared by centrifugation (5 min, 9000 g), and RNA was extracted using the Direct-zol RNA kit (Zymo Research, Irvine, CA, USA), according to the manufacturer's protocol. RNA levels were quantified with a one-step RT-qPCR (iTaq Universal Probes One-Step Kit, Bio-Rad, Hercules, CA, USA) as previously described.
To start, all stool samples were brought to the same theoretical inoculum (± 1000 viral RNA copies/3 nL injection volume) by dilution with PBS. To compare the viral infectivity between different stool samples, multiple methods were used; A) calculating the fold increase by taking the input based on the viral load of P1's stool samples and the amount of viral RNA copies/zebrafish at the peak of replication into account which are both quantified by RT-qPCR and B) determining the 50% infectious dose for each stool sample based on a well-established method adapted to the zebrafish replication model by diluting the collected stool samples to evaluate at which dilution the infectivity is lost.

HuNoV [4] = test: HuNoV whole-genome sequencing of longitudinal patient stool samples; set-up: species or system human
Text: Stool samples were collected from the patients. Full-length HuNoV genome sequences were obtained from samples using SureSelectXT target enrichment and Illumina sequencing. For each patient, a unique patient reference was generated by mapping the remaining reads of the first sample to the genotype reference from GenBank using bwa-mem. Reads from the subsequent samples of the same patient were mapped to this patient reference. Consensus sequences were aligned using MAFFT [58]. Only genomes with >80% genome coverage and a mean read depth of 100 or above were included in downstream analysis. Minority allele variants with a frequency of above 2% and a minimum of 2 supporting reads were identified at sites with a read depth of ≥5 using VarScan. For plotting polymorphism frequency, we have determined Watterson's theta which normalises for reading depth. Maximum likelihood phylogenies were constructed using RAxML [13], with the GTR model and 1000 bootstrap replicates. General data processing was carried out in R 3.6.1 using Rstudio 1.2. with the tidyverse family of packages (v1.2.1). Figures were made using the ggplot2 package.

mouse norovirus = system: mouse norovirus; set-up: method as in PMID 22809499; conditions: 95%CI: 35–43 μg/mL; cited from earlier work
zebrafish larvae = test: Toxicity analysis in zebrafish larvae; type: in vivo; conditions: 25 ng favipiravir or 4 ng tizoxanide, drug administered alone
Description: First, compounds were dissolved in 100% DMSO (spectroscopy grade). To determine the correct dose for pericardial injections in zebrafish larvae of all compounds (i.e. favipiravir, tizoxanide and their 1:1 combination), a weight-dependent conversion was applied. For this purpose, the optimized and increased clinical dose of 400 mg favipiravir TDS and 200 mg tizoxanide BD was used. To ensure the weight-converted dose was not toxic for zebrafish larvae of 3 days post fertilization, a toxicity analysis was performed. […] The following parameters were investigated: touch response, morphology, posture, oedema, signs of necrosis, swim bladder and heartbeat.

In the case of NC(=O)c1nc(F)c[nH]c1=O [favipiravir], the Adverse event [1] is listed as “recurring transaminitis of undetermined aetiology”, the “Change in stool HuNoV viral load” value (HuNoV [2]) is listed as “modest decrease in HuNoV VLs, but not viral clearance” and the “Fold increase in viral RNA, 0 to 2 dpi” value (HuNoV [3]; P1 SS B, 2 days into favipiravir treatment (after 10 days ribavirin), ~1000 genome copies, pre-treatment SS A 321 ± 177) is listed as 143 ± 76 fold. The “50% infectious dose (ID50)” value (HuNoV [3]; P1 SS B, 2 days into treatment, pre-treatment SS A 289) was 697 viral RNA copies/zebrafish, the “Fold increase in viral RNA, 0 to 2 dpi” value (HuNoV [3]; P1 SS C, 125 days into favipiravir treatment, ~1000 genome copies, pre-treatment SS A 321 ± 177) was 53 ± 31 fold and the “50% infectious dose (ID50)” value (HuNoV [3]; P1 SS C, 125 days into treatment, pre-treatment SS A 289) was 461 viral RNA copies/zebrafish. The “50% infectious dose (ID50)” value (HuNoV [3]; P1 SS D, after a 2-month treatment gap) was 338 viral RNA copies/zebrafish, the “Fold increase in viral RNA, 0 to 2 dpi” value (HuNoV [3]; P1 SS D, after a treatment gap of 2 months, ~1000 genome copies) was 177 ± 55 fold and the “Fold increase in viral RNA, 0 to 2 dpi” value (HuNoV [3]; P1 SS E, 6 months after re-introduction at higher favipiravir dose) was 75 ± 21 fold. For the same compound, the “50% infectious dose (ID50)” value (HuNoV [3]; P1 SS E, after treatment reintroduction (higher dose)) was 880 viral RNA copies/zebrafish, the “Fold increase in viral RNA, 0 to 2 dpi” value (HuNoV [3]; P1 SS F, 7 months after re-introduction at higher favipiravir dose) was 47 ± 16 fold and the “50% infectious dose (ID50)” value (HuNoV [3]; P1 SS F, after treatment reintroduction (higher dose)) was 1110 viral RNA copies/zebrafish. The “Increase in the 50% infectious dose in HuNoV shed during treatment” value (HuNoV [3]; P1 stool samples over one year of treatment) was about 1 log10, the “Favipiravir-associated viral sequence changes” value (HuNoV [4]; P1, P2 and P4, coinciding with periods of favipiravir treatment, reducing after cessation) was “accumulation of A to G and T to C sequence changes” and the “Favipiravir-associated viral sequence changes” value (HuNoV [4]; P3, six samples) was “without evidence of accumulation of A to G and T to C favipiravir-associated sequence changes”. For the same compound, the “EC50 for mouse norovirus in vitro” value (mouse norovirus) was “EC50 Favipiravir for mouse norovirus (39 μg/mL [35])” and the “Toxicity in the zebrafish larval model” value (zebrafish larvae) was “did not show toxicity”.
